In one test the test system is NcCDHIIA. Nature of the test: Amplex Red–horseradish peroxidase assay, background H2O2 production by CDH. The conditions noted are these: for Specific activity, Background: without LPMO, 1 µM NcCDHIIA, 10 mM lactose, 50 µM AmplexRed, 7 U mL-1 horseradish peroxidase. The test is classed as biochemical, Neurospora crassa. The protocol:
(§1) The Amplex Red–horseradish peroxidase assay was used to measure the uncoupling reaction of NcLPMO9C that produces superoxide or H2O2. The activity of LPMO was measured in the presence of oxalic acid as an inhibitory compound.

In test [1] the target is T1, NcLPMO9C (Neurospora crassa, UniProt Q7SHI8).
T1 sequence (Q7SHI8 17-359): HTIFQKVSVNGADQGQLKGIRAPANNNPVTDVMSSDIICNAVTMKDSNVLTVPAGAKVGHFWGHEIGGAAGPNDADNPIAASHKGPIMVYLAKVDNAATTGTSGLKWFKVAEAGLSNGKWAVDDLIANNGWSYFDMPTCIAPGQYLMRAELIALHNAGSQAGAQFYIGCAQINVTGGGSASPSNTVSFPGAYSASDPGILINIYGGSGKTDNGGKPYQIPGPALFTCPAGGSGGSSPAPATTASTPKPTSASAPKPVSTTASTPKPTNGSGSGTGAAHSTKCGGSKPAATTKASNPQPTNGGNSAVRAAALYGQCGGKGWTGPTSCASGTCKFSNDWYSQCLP
The conditions noted are these: for Rate (Light Intensity at 620 nm min^−1): 0.5 µM NcLPMO9C, 1 mM ascorbic acid, 100 µM H2O2, pH 6.0, acetic acid 200 mM, mean ± SD; for activity: pH 6.
Procedure: LPMO activity was measured by the attenuation of optical density at 620 nm at 30 °C in 100 mM sodium acetate, 100 mM sodium citrate, or 100 mM sodium phosphate buffer, pH 6.0. […] The pH was checked before and after the measurements. A total volume of 2.5 mL contained 100 mM of buffer, pH 6.0, 0.8 mg/mL PASC, 0.5 or 1.0 µM of NcLPMO9C, 1 mM ascorbic acid or 1 µM NcCDHIIA with 10 mM lactose. A 10 mm quartz cuvette with a magnetic stirrer was used to maintain a homogeneously mixed PASC suspension.
To measure the inhibition by oxalic acid, the change in light intensity per minute was calculated at different inhibitor concentrations. […] LPMO was reduced with ascorbic acid and mixed with H2O2 to measure the activity.
LPMO peroxygenase activity was tested on PASC using a turbidity assay. Reaction was started with H2O2 and rates were obtained from light-intensity decrease at 620 nm. Assay contained 0.5 µM (A) or 1.0 µM (B) NcLPMO9C, 0.8 mg mL^−1 PASC, 1 mM ascorbic acid and 100 µM H2O2, respectively. H2O2 was added after 30 s to the stirred cuvette and the rate calculated from 40 s up to 200 s, having a data interval for each point of 0.1 s. pH was checked after all measurements and data are expressed as mean values (±SE), from three independent repeats. IC50 values were obtained by a nonlinear curve fit and calculating the oxalic acid concentration of oxalic acid at 50% of the rate.

Test [2] addresses T1, NcLPMO9C. Nature of the test: Amplex Red–horseradish peroxidase assay of the uncoupling reaction (H2O2 production) of LPMO. It counts as biochemical. More on the design: made in house; host or cells: Pichia pastoris X-33. The conditions noted are these: 1 µM NcLPMO9C, 1 µM NcCDHIIA, 10 mM lactose, 50 µM AmplexRed, 7 U mL-1 horseradish peroxidase; for Specific activity, NcLPMO9C - background: 100 mM sodium acetate buffer pH 6.0, without or with 100 mM oxalic acid; for Specific activity, NcLPMO9C: not background-corrected. The protocol:
as §1

The target of test [3] is T1, NcLPMO9C. The conditions noted are these: - Ascorbic acid (blank); 4 h, 4 × 100 µM H2O2, 100 mM compound.
Procedure: NcLPMO9C (1 µM) was incubated with 2 mg mL^−1 PASC, either 1 mM ascorbic acid or 1 µM NcCDHIIA together with 10 mM lactose as reductant and 400 µM H2O2 (4 × 100 µM) as cosubstrate at a total volume of 1 mL. At the beginning and after every hour, 100 µM H2O2 was added to the reaction. The reaction tubes were closed and continuously mixed in the dark for a total reaction time of 4 h. Reactions were stopped by heating to 95 °C for 10 min. The remaining PASC was removed by centrifugation, and the supernatant was analyzed by HPLC. Soluble cello-oligomers (DP 1–6) were used as standards to quantify LPMO-released products. To test the effect of different buffers or inhibitors, 100 mM sodium acetate buffer, pH 6.0, was supplemented with 100 mM of the different compounds.
We analyzed cello-oligomeric product formation after PASC treatment with NcLPMO9C, which is released as a byproduct of cellulose oxidation. […] Conditions with different buffers and reducing agents were tested. In all experiments, LPMO, PASC and H2O2 were present. As a reducing agent, ascorbic acid was chosen, whereas blank reactions were carried out in the absence of ascorbic acid.
H2O2 was added four times every hour.
In test [4] the target is T1, NcLPMO9C. Particulars: for peroxidase activity of LPMO at higher concentrations: >100 mM of the substance, 2,6-DMP and hydrocoerulignone assays; for Residual activity to 100 mM acetate buffer, Hydro-Coerulignone: pH 6.
Procedure: (§2) LPMO-activity assay using 2000 µM 2,6-DMP or 500 µM hydrocoerulignone were carried out in 100 mM sodium acetate buffer at pH 6.0, at 30 °C using 100 µM H2O2, at 469 nm and a reaction time of 300 s. For blank reactions, the same experiments were performed without adding LPMO. The resulting rate was subtracted from the rate with the addition of LPMO. One unit of LPMO activity is defined as the conversion of either 2 µmol 2,6-DMP or 1 µmol hydrocoerulignone or the formation of 1 µmol coerulignone (ε469 = 53,200 M^−1 cm^−1) per min under reaction conditions. For the inhibition tests, the 100 mM sodium acetate buffer at pH 6.0 was supplemented with 100 mM of the different compounds and the pH was checked before and after the measurements.
(§3) By measuring the LPMO activity in 100 mM sodium acetate buffer, we determined the maximum activity achievable for the applied conditions.
For test [5], the target named is T1, NcLPMO9C. Nature of the test: biochemical. Particulars: for IC50: IC50 values as summarised in the text, for both assays (2,6-DMP and hydrocoerulignone), peroxidase reaction; for remaining activity at 100000 µM: pH 6, read-out: Residual activity to 100 mM acetate buffer, Hydro-Coerulignone.
Procedure: as §2, §3

Read-outs that look alike come from different tables or passages of the source.

Consider `CC(=O)O` [Acetic acid], for which, in the test on NcCDHIIA, the “Specific activity, Background” value came to 2.6 ± 0.1 U g-1. Also, the “Rate (Light Intensity at 620 nm min^−1)” value at NcLPMO9C [1] was 0.14 ± 0.01 Light Intensity at 620 nm min^−1. In addition, on NcLPMO9C [2], the “Specific activity, NcLPMO9C - background” value was 4.9 ± 0.1 U g-1 and the “Specific activity, NcLPMO9C” value is 7.5 ± 0.1 U g-1. On NcLPMO9C [3], the Total cello-oligomers produced was found to be 14.6 µM, the cellobiose produced worked out at 4.2 µM, the cellotetraose produced was determined as 6.2 µM and the cellotriose produced is given as 4.3 µM.

Take `O=C(O)CC(O)(CC(=O)O)C(=O)O` [Citric acid]: at NcLPMO9C [1], the “Rate (Light Intensity at 620 nm min^−1)” value is given as 0.014 ± 0.001 Light Intensity at 620 nm min^−1 and the activity turned out to be 8 ± 1%. Besides, the “peroxidase activity of LPMO at higher concentrations” value (“peroxidase activity of LPMO” below) at NcLPMO9C [4] was “nondetectable level”. For the same molecule, on NcLPMO9C [3], the Total cello-oligomers produced was determined as 17.3 µM, the cellobiose produced stood at 7.2 µM, the cellotetraose produced was 5.9 µM and the cellotriose produced came to 4.2 µM.

`O=CC=O` [Glyoxal]: the “Residual activity to 100 mM acetate buffer, Hydro-Coerulignone” value (“Residual activity” for short) at NcLPMO9C [4] is reported as 43.9 ± 3.6%.

Consider `O=CC(=O)O` [Glyoxylic acid], for which the “Residual activity” value at NcLPMO9C [4] stood at 1.1 ± 0.3%.

Consider `N[C@@H](Cc1c[nH]cn1)C(=O)O` [Histidine], for which the “peroxidase activity of LPMO” value on NcLPMO9C [4] was “nondetectable level”. Moreover, at NcLPMO9C [5], the half-maximal inhibitory concentration (IC50) is ~1000 µM and the remaining activity at 100000 µM was 0.4 ± 0.2%.

In the case of `c1c[nH]cn1` [Imidazole], on NcLPMO9C [4], the “Residual activity” value is given as 72.2 ± 3.9%.

As for `CC(O)C(=O)O` (centres unmarked) [Lactic acid], on NcLPMO9C [1], the “Rate (Light Intensity at 620 nm min^−1)” value is listed as 0.08 ± 0.02 Light Intensity at 620 nm min^−1 and the activity amounted to 47 ± 13%. At NcLPMO9C [3], the Total cello-oligomers produced was 12.4 µM, the cellobiose produced turned out to be 3.5 µM, the cellotetraose produced is 5.4 µM and the cellotriose produced was 3.6 µM.

Turning to `O=S(=O)([O-])[O-].[Na+].[Na+]` [Na2SO4], the 50% inhibitory concentration (IC50) at NcLPMO9C [4] (read-out: IC50 values as summarised in the text, for both assays (2,6-DMP and hydrocoerulignone), peroxidase reaction) is ~30000 µM.

Regarding `[F-].[Na+]` [NaF], the “effect on the activity of the LPMO” value on NcLPMO9C [4] (peroxidase assays) was “did not show any effect on the activity of the LPMO until very high concentrations were used”.

`O=C(O)C(=O)O` [Oxalic acid]: the “H2O2 production by NcCDHIIA” value in the test on NcCDHIIA (100 mM oxalic acid) is reported as “not inhibited”. Besides, the “Specific activity, Background” value with NcCDHIIA worked out at 3.4 ± 0.1 U g-1. The “Rate (Light Intensity at 620 nm min^−1)” value on NcLPMO9C [1] is 0.002 ± 0.001 Light Intensity at 620 nm min^−1. Besides, on NcLPMO9C [4], the “peroxidase activity of LPMO” value is listed as “nondetectable level”. In addition, on NcLPMO9C [2], the “Specific activity, NcLPMO9C - background” value amounted to 0.1 ± 0.1 U g-1 and the “Specific activity, NcLPMO9C” value came to 3.5 ± 0.1 U g-1. Further, on NcLPMO9C [5], the half-inhibitory concentration (IC50) was ~1000 µM and the remaining activity at 100000 µM is 0.6 ± 0.1%. Also, at NcLPMO9C [3], the Total cello-oligomers produced was found to be 15.8 µM, the cellobiose produced came out at 6.8 µM, the cellotetraose produced is on record as 5.3 µM and the cellotriose produced is 3.7 µM.

For `O=P(O)(O)O` [Phosphoric acid], on NcLPMO9C [1], the “Rate (Light Intensity at 620 nm min^−1)” value is 0.107 ± 0.02 Light Intensity at 620 nm min^−1. At NcLPMO9C [3], this molecule gave a Total cello-oligomers produced of 14.8 µM, a cellobiose produced of 6.9 µM, a cellotetraose produced of 4.6 µM and a cellotriose produced of 3.3 µM.

For `CC(=O)C(=O)O` [Pyruvic acid], the remaining activity at 100000 µM on NcLPMO9C [5] worked out at 4.1 ± 0.4%. On NcLPMO9C [3], this molecule came in with a Total cello-oligomers produced of 9.0 µM, a cellobiose produced of 5.6 µM and a cellotriose produced of 3.3 µM.

By IC50 is commonly meant the concentration at which inhibition is half-maximal.

For the origin of these results see article PMC9220355, “Inhibition of the Peroxygenase Lytic Polysaccharide Monooxygenase by Carboxylic Acids and Amino Acids” (Antioxidants, 2022).
